The values that follow come from paper PMC4878759 (PLoS ONE, 2016).

In experiment [1] the target is T1, human wild-type CFTR (Homo sapiens, UniProt P13569).
T1 construct: expressed in transfected cells; host or cells: Fischer rat thyroid (FRT) cells
In words: Apical membrane current in FRT cells expressing CFTR. The settings on record: up to 30 μM, CFTR activated by 20 μM forskolin. The class given is cell-based. As to the method:
(§1) Snapwell inserts containing ANO1, ANO2 or CFTR expressing FRT cells, ENaC expressing T-84 cells or the human primary airway epithelial cells were mounted in Ussing chambers (Physiologic Instruments, San Diego, CA). To induce transcriptional ENaC induction, the polarized T84 cells were incubated with 2 mM sodium butyrate for 2 days. To increase the functional expression of ANO1, the human airway epithelial cells were treated with IL-4 (10 ng/mL) for 2 days. For T-84 and the human primary airway epithelial cells, the apical and basolateral bath were filled with HCO3^—buffered solution containing (in mM): 120 NaCl, 5 KCl, 1 MgCl2, 1 CaCl2, 10 D-glucose, 2.5 HEPES, and 25 NaHCO3 (pH 7.4). For FRT cells, the basolateral bath was filled with the HCO3^—buffered solution and the apical bath was filled with a half-Cl^- solution. In the half-Cl^- solution 65 mM NaCl in the HCO3^—buffered solution was replaced by Na-gluconate. […] ATP was applied to the apical bath solution to induce intracellular calcium increase. […] Apical membrane currents were measured with an EVC4000 Multi-Channel V/I Clamp (World Precision Instruments, Sarasota, FL) and PowerLab 4/35 (AD Instruments, Castle Hill, Australia). Data were analyzed using Labchart Pro 7 (AD Instruments). The sampling rate was 4 Hz.
(§2) ANO1 was activated by either 10 μM Eact, an ANO1 activator, or 100 μM ATP.

For experiment [2], the target named is T2, ENaC (Homo sapiens, UniProt P37088+P51168+P51170).
T2 construct: endogenous in cells; host or cells: T84 cells, ENaC induced with 2 mM sodium butyrate for 2 days
T2 sequence (P37088 1-669): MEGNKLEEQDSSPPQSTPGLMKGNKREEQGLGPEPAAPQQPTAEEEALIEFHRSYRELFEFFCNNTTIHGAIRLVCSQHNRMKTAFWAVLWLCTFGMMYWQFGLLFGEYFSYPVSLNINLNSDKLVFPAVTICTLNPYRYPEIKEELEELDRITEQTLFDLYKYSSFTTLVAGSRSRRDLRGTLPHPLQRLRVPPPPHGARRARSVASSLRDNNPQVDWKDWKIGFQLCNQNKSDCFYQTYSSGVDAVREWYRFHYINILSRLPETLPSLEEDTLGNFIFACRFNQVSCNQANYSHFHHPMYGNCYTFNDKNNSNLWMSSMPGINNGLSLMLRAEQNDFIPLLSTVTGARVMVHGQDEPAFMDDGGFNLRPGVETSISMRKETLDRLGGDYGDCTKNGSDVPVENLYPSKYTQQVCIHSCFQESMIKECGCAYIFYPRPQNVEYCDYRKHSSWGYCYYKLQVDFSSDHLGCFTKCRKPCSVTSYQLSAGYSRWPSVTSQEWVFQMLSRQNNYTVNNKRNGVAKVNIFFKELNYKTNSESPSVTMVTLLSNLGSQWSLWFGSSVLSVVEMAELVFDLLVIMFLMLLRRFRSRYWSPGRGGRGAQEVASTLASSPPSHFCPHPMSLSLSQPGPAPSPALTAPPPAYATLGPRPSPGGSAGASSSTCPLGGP
T2 sequence (P51168 1-640): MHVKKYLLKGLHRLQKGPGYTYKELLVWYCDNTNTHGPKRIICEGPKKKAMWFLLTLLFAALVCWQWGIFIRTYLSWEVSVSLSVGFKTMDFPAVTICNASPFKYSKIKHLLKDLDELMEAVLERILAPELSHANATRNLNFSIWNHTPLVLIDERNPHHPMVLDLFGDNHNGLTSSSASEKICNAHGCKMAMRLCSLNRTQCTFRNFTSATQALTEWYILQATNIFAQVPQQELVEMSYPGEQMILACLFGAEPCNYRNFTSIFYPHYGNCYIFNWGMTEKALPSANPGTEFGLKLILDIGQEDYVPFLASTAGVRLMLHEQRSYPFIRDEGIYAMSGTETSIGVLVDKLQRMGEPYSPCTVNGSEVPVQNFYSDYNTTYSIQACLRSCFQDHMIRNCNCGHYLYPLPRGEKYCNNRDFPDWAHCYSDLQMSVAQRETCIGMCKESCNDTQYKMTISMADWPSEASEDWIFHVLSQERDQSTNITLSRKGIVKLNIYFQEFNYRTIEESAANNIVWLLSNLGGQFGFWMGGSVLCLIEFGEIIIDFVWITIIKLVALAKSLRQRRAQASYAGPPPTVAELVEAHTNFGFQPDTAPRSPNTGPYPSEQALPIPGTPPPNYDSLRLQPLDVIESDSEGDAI
T2 sequence (P51170 1-649): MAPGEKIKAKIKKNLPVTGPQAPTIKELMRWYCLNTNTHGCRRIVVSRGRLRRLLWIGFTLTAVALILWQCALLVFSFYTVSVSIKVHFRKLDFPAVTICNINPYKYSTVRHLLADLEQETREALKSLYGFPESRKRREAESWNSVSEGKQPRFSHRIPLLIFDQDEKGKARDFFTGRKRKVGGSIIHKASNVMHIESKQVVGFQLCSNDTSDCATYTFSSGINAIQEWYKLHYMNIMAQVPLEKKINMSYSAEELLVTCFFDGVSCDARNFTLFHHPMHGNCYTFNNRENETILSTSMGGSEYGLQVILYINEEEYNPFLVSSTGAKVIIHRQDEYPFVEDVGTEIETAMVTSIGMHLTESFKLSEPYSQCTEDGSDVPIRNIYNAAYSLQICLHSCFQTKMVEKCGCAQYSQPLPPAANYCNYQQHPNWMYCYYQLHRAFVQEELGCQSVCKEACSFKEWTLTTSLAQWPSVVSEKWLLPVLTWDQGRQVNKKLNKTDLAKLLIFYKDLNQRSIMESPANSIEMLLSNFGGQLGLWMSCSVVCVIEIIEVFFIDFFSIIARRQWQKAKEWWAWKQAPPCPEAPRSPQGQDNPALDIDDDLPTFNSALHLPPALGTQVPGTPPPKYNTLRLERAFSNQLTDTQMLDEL
The experiment can be described thus: Short circuit current in T84 cells expressing ENaC. The class given is cell-based. The settings on record: up to 30 μM. The method, then:
as §1, §2

T1 sequence (P13569 whole entry): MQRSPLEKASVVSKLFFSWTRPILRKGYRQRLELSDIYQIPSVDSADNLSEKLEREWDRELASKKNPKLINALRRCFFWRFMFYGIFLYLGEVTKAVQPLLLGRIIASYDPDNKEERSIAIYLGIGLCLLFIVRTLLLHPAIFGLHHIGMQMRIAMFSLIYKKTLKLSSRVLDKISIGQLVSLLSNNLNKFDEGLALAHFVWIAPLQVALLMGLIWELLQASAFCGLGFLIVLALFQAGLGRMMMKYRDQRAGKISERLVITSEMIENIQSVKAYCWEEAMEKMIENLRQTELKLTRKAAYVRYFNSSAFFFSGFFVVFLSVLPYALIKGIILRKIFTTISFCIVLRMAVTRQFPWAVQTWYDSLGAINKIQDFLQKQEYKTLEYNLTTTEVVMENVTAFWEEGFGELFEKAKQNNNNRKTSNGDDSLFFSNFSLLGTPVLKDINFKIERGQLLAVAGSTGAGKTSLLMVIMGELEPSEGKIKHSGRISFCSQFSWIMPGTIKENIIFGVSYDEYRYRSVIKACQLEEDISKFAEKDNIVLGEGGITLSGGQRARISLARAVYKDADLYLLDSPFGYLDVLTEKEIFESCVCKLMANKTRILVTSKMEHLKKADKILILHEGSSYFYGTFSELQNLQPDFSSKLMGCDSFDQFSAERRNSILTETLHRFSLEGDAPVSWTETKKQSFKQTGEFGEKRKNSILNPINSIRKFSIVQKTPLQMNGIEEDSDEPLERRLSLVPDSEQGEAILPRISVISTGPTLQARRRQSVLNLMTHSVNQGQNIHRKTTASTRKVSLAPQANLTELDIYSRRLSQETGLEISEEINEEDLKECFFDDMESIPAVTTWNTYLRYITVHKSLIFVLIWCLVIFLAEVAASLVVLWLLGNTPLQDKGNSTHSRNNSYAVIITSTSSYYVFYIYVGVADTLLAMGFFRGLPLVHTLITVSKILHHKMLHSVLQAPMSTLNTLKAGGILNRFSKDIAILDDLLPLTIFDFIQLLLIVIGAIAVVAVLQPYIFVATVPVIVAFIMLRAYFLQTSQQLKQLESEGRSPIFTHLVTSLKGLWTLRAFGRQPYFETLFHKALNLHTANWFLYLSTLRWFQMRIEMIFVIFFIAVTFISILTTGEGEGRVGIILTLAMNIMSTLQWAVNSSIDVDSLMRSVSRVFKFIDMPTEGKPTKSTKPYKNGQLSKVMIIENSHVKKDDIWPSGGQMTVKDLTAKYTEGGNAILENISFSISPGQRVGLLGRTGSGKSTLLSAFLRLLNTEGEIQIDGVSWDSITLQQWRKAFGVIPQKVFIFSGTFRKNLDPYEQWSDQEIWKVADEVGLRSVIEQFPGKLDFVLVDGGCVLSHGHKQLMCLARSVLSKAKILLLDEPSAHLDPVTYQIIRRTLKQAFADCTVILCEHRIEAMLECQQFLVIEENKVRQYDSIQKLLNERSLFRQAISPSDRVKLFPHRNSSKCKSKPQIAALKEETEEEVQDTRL

On to `COc1ccccc1C=NNC(=O)COc1ccc(Cl)cc1C` [Ani9, 2-(4-chloro-2-methylphenoxy)-N-[(2-methoxyphenyl)methylideneamino]-acetamide], for which the “effect on CFTR channel activity” value in experiment [1] is recorded as “no effect”. For the same compound, in experiment [2], the “effect on ENaC channel activity” value is reported as “no effect”.
